One data set concerns M. incognita eggs. Briefly: Microwell assay: eggs immersed in compounds, hatch and activity of hatched J2. To be noted: 0.1%; for % Active Day 2 / % Active Day 5 / % Active Day 7: J2 hatched from immersed eggs; for Hatch Day 2 / Hatch Day 5 / Hatch Day 7: hatched J2 per well, about 35 eggs per well. In kind it is in vivo, Meloidogyne incognita. As to the method:
(§1) All chemicals were used without further purification.
(§2) These are reported as 0.1% herein.
(§3) The nematodes were then incubated at 26° C. […] Two trials were conducted for each assay.
(§4) The assumptions of the model were checked.

The next data set concerns Heterodera glycines eggs. The data set is described as above. In kind it is in vivo. To be noted: 0.1%; for % Active Day 2 / % Active Day 5 / % Active Day 7: J2 hatched from immersed eggs; for Hatch Day 2 / Hatch Day 5 / Hatch Day 7: hatched J2 per well, about 35 eggs per well; for pest or weed control at 0.1 %: Heterodera glycines, 168 h, Day 7, read-out: egg hatch suppression compared with the Tween control. As to the method: as §1, §2, §3, §4

Another data set deals with Caenorhabditis elegans. To be noted: produced by Bacillus nematocida; cited from earlier work.
Data set [1] has as its system M. incognita second-stage juveniles. Briefly: Microwell assay: previously hatched J2 immersed in compounds, activity and viability. To be noted: for % Active Day 1 / % Active Day 2: previously hatched J2 in aqueous solution; for viability at 0.1 %: read-out: % Viable Day 3 rinsed. As to the method:
Nematode cultures: As described in Meyer et al. (Meyer, S. L. F., et al., Nematropica, 46: 85-96 (2016)), M. incognita race 1 (originally isolated in Maryland) was maintained in a greenhouse (24° to 29° C.; natural and supplemental lighting combined for a 16-h daylength) on susceptible cayenne pepper (Capsicum annuum) TA-136′ plants. All greenhouse experiments described herein were conducted under the same conditions. Two to three months after pepper plant inoculation, egg masses were picked from roots. Eggs were separated by 5 min immersion in 0.6% sodium hypochlorite, followed by a rinse in sterile distilled water (SDW). To collect second-stage juveniles (J2) for microwell assays, the surface-sterilized eggs were placed in a hatching chamber (Spectra/Mesh Nylon Filter, openings 25-μm-diam.; Spectrum Laboratories Inc., Rancho Dominguez, Calif.) set in an autoclaved dish that was placed on a rotary shaker for 3 days at 35 rpm. For some M. incognita and H. glycines assays, 25 or […] kanamycin monosulfate (Phytotechnology Laboratories, Shawnee Mission, Kans.) was added to the hatching chamber to prevent growth of bacteria. The collected J2 were then rinsed with water to remove the kanamycin monosulfate.
(§5) Compounds for the studies were purchased from three different companies: methyl benzoate, CAS Number 93-58-3, ≥99% purity; Tween 20, CAS Number: 9005-64-5; Tween 80, CAS Number: 9005-65-6; ethyl benzoate, CAS Number: 93-89-0, natural, ≥99% purity, FCC, FG; vinyl benzoate, CAS Number: 769-78-8, ≥99% purity; n-propyl benzoate, CAS Number: 2315-68-6, 99% purity; n-butyl benzoate, CAS Number: 136-60-7, 99% purity; benzyl benzoate, CAS Number: 120-51-4, natural, ≥99% purity, FCC, FG; methyl 2-methylbenzoate, CAS Number: 89-71-4, 99% purity; methyl 2-chlorobenzoate, CAS Number: 610-96-8, ≥98% purity; methyl 2-methoxybenzoate, CAS Number: 606-45-1, 99% purity and methyl 2-nitrobenzoate, CAS Number: 606-27-9, 98% purity were purchased from Sigma-Aldrich (St. Louis, Mo.). Compounds, iso-butyl benzoate, CAS Number 120-50-3, >98% purity; n-pentyl benzoate, CAS Number: 2049-96-9, ≥98% purity; and n-hexyl benzoate, CAS Number: 6789-88-4, ≥98% purity were purchased from Alfa Aesar (Tewksbury, Mass.). The compounds methyl 3-methoxybenzoate (methyl m-anisate), CAS Number: 5368-81-0; 97% and methyl 3-methylbenzoate (methyl m-toluate), CAS Number: 99-36-5, 97% purity were purchased from TCI America (Portland, Oreg.). All chemicals were used without further purification. Deionized water (DI) containing 1% emulsifier (v/v), Tween 20 and Tween 80, at 1:1 ratio was used to make different VOCs (volatile organic compounds) water solutions and also used as blank control.
(§6) For tests with individual compounds, the concentration of each compound was 0.1% before placement into wells; the final concentration in the wells was 0.095% after addition to eggs or J2 suspended in water. These are reported as 0.1% herein. An exception was Trial 2, M. incognita J2 activity and viability (Table 2): the final concentration was 0.1% after placement in wells. Low concentrations were selected for assays of combined compounds to determine if the combinations would increase nematotoxicity.
(§7) Laboratory assays were conducted in 96-well polystyrene plates following general procedures described in Wen et al. (2019). Each well received approximately 35 J2 (for previously hatched J2 assays) or 35 eggs that each contained either a first-stage juvenile (J1) or a J2. The plates were covered with plastic adhesive sealing film (Excel Scientific, Inc., Victorville Calif.) and then with the plate lids. Parafilm (Bemis, Neenah, Wis.) was used to seal the plates. The nematodes were then incubated at 26° C. […] Following the counts on Day 2, the treatments were removed and the J2 rinsed twice with SDW and incubated in the second rinse. […] Two trials were conducted for each assay.

Data set [2] has as its system H. glycines second-stage juveniles. The data set is described as above. To be noted: for % Active Day 1 / % Active Day 2: previously hatched J2 in aqueous solution; for viability at 0.1 %: Heterodera glycines, 72 h, read-out: % Viable Day 3 rinsed. As to the method: The isolate of H. glycines race 3, originally isolated in Maryland, was maintained on soybean (Glycine max cv. ‘Essex’). As previously described (Wen, Y., et al. Plant Disease, 103: 2191-2198 (2019)), the roots were gently rubbed in water to dislodge cysts and mature females. The egg suspensions were then poured through nested sieves (#20 over /#60; pore sizes 850 μm and 250 μm diam., respectively) into a 454 g/liter sucrose solution. After 15 min, the cysts and females and cysts that floated to the top were collected, rinsed in water, and crushed with a rubber stopper on a #60 sieve (250-μm diam. pore size) that was partially submerged in distilled water. The egg suspension was washed through nested #230 over #500 sieves (pore sizes 63 μm and 25-μm diam., respectively). The eggs were collected in distilled water, and J2 hatched as described above.
as §5, §6, §7
Statistical analyses: The data were analyzed as either a general linear model using JMP or a generalized linear model for the best distribution to fit the residual using Proc Glimmix (Sas Institute). The assumptions of the model were checked. If not met, then appropriate statistical techniques were used so that data could met the assumptions of the models. In Sas, mean comparisons were done with Sidak adjusted p-values to hold the experiment-wise error at 0.05.

In a further data set the test system is C. elegans. To be noted: during the first hours of incubation; cited from earlier work.
Another data set has as its system X americanum adults. To be noted: in vivo; cited from earlier work.
In a further data set the test system is M. incognita. To be noted: in vivo; cited from earlier work.

Where “and” joins values, the source holds several entries; their conditions need not be identical. Identical values can stand only once. Marks after values point to notes of the source that are not given here.

With `O=C(OCc1ccccc1)c1ccccc1` [BB, Benzyl benzoate], in the data set with M. incognita eggs, the “% Active Day 2” value is recorded as 67.0 ^ab %, the “% Active Day 5” value was 33.5 ^cd %, the “% Active Day 7” value is on record as 24.8 ^b % and the “Hatch Day 2” value is on record as 2.6 ^cd. For the same molecule, in the data set on M. incognita eggs, the “Hatch Day 5” value was 4.2 ^cde and the “Hatch Day 7” value is given as 4.1 ^de. Besides, in the data set on Heterodera glycines eggs, the “% Active Day 2” value is on record as 15.2 ^cd %, the “% Active Day 5” value was 17.0 ^cde %, the “% Active Day 7” value is listed as 13.5 ^bc % and the “Hatch Day 2” value is listed as 4.1 ^cd. Further, in the data set on Heterodera glycines eggs, the “Hatch Day 5” value is recorded as 4.5 ^cd, the “Hatch Day 7” value is recorded as 4.6 ^cd and the pest or weed control at 0.1 % lay in the range of 64 to 80%. Besides, the nematode attraction result with Caenorhabditis elegans is recorded as “nematode attractant”. Also, the “% Viable Day 3 rinsed” value in data set [1] (0.1%, after Day 2 water rinse) is given as “did not show a significant difference”. In data set [1] (0.1%), the “% Active Day 1” value is listed as 83.2 ^a % and the “% Active Day 2” value was 83.1 ^a %. Besides, the viability at 0.1 % in data set [1] (Meloidogyne incognita, 72 h) was found to be 79.9%. Besides, in data set [2] (0.1%, Day 3 following water rinse), the “reduction in % viable J2 compared with the Tween control” value is on record as 33%. Further, in data set [2] (0.1%), the “% Active Day 1” value is listed as 66.4 ^bc % and the “% Active Day 2” value was 60.1 ^abc %. In addition, in data set [2], the viability at 0.1 % stood at 41.2%.
Regarding `CC(=O)c1c(O)cc(O)c(C(C)=O)c1O` [DAPG, 2,4-diacetylphloroglucinol], the hatch entry in the data set with C. elegans is recorded as “stimulated hatch”. In the data set with X americanum adults, the toxicity to adults entry was “toxic”. In addition, the egg hatch result in the data set on M. incognita is reported as “decreased egg hatch”.
Consider `CCCCCOC(=O)c1ccccc1` [nPeB, n-Pentyl benzoate], for which, in the data set with M. incognita eggs, the “% Active Day 2” value is recorded as 31.5 ^b %; the “% Active Day 5” value is 0 ^e %; the “% Active Day 7” value is 0% and 0 ^c %; the “Hatch Day 2” value was 4.9 ^bcd. Moreover, the “Hatch Day 7” value in the data set on M. incognita eggs was 6.6 ^cde. In addition, in the data set with Heterodera glycines eggs, the “% Active Day 2” value is listed as 4.2 ^d %, the “% Active Day 5” value is 4.3 ^e %, the “% Active Day 7” value was 4.2 ^c % and the “Hatch Day 2” value is 7.6 ^bcd. For the same molecule, in the data set on Heterodera glycines eggs, the “Hatch Day 5” value is reported as 7.7 ^bcd and the “Hatch Day 7” value is 7.5 ^bcd. Besides, in data set [1] (0.1%), the “% Active Day 1” value was 29.9 ^bc % and the “% Active Day 2” value is given as 22.9 ^b %. Besides, the viability at 0.1 % in data set [1] (Meloidogyne incognita, 72 h) came to 16.5%. Also, the “nonviable (killed) J2” value in data set [1] (in vivo) is “killed most of the J2”. Besides, in data set [2] (0.1%), the “% Active Day 1” value is 54.0 ^c % and the “% Active Day 2” value is 29.1 ^de %. The viability at 0.1 % in data set [2] was 28.4%.
Take `CCCOC(=O)c1ccccc1` [nPrB, n-Propyl benzoate]: in the data set on M. incognita eggs, the “% Active Day 2” value is on record as 0 ^c %, the “% Active Day 5” value was 0 ^e %, the “% Active Day 7” value is 0 ^c % and the “Hatch Day 2” value is listed as 3.5 ^cd. Moreover, in the data set with M. incognita eggs, the “Hatch Day 5” value was 4.0 ^cde and the “Hatch Day 7” value was 4.1 ^de. Also, the “hatch suppression compared to the Tween control” value in the data set with Heterodera glycines eggs (Day 2) came to 60%. For the same molecule, in the data set on Heterodera glycines eggs, the “% Active Day 2” value is recorded as 2.2 ^d %, the “% Active Day 5” value is listed as 0 ^f %, the “% Active Day 7” value is on record as 0 ^d % and the “Hatch Day 2” value was 5.8 ^cd. In addition, in the data set on Heterodera glycines eggs, the “Hatch Day 5” value is recorded as 5.8 ^cd, the “Hatch Day 7” value is reported as 5.6 ^cd and the pest or weed control at 0.1 % fell in the range of 64 to 80%. The “inactive J2 that hatched from the eggs” value in the data set on Heterodera glycines eggs (by Day 7) came out at 100%. For the same molecule, in data set [1] (0.1%), the “% Active Day 1” value is on record as 0 ^f % and the “% Active Day 2” value was 0 ^d %. Also, the viability at 0.1 % in data set [1] (Meloidogyne incognita, 72 h) came to 0%. Besides, the mortality at 0.1 % in data set [1] (Meloidogyne incognita, 72 h, read-out: nonviable (killed) J2) was determined as 100%. In data set [2] (0.1%), the “% Active Day 1” value was 17.2 ^d % and the “% Active Day 2” value was 10.8 ^fg %. The viability at 0.1 % in data set [2] is 12.1%.

(Values after patent US20220183287A1, “METHODS FOR KILLING PESTS” (The United States of America, as represented by the …, priority 2020, published 2022).)
